Assay results from US12240844B2 (Voronoi, Inc., priority 2019, dated 2025).

What was measured:
Type in all cases: biochemical
[1] = biological target: T1, human GST-DYRK1A (full length) (Homo sapiens, UniProt Q13627); assay: GST-DYRK1A enzyme inhibition, ADP-Glo kinase assay; details: read-out: DYRK1 IC50
T1 construct: purified human GST-DYRK1A (full length, Thermo scientifics) enzyme; GST; purchased Thermo scientifics
In short: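 ADP-Glo luminescence quantified kinase activity after a 1 h, 25° C reaction of 10 ng full-length GST-tagged human DYRK1A, substrate and 10 uM ATP in Tris-HCl buffer pH 7.4 with MgCl2, BSA and DTT. Triplicate IC50 values (nM) calculated relative to untreated solvent control.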

LRRK2 (G2019S) = LRRK2 (G2019S) (Homo sapiens, UniProt Q5S007, G2019S); assay: LRRK2 G2019S enzyme inhibition, ADP-Glo kinase assay; set-up: purchased SignalChem L10-12GG
In short: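 Activity read as ADP-Glo luminescence, normalized to untreated solvent control, with IC50 (nM) fitted over 12 final compound levels (top 50 μM). Reaction: 2 h, 25° C, human LRRK2 G2019S 16 ng, ATP 25 μM, substrate 0.2 μg, in Tris-HCl pH 7.4 with MgCl2, BSA and DTT.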

human GST-CLK1 (129-end) = biological target: T2, human GST-CLK1 (129-end) (Homo sapiens, UniProt P49759); assay: GST-CLK1 enzyme inhibition, ADP-Glo kinase assay; details: ATP 10 uM
T2 construct: purified human GST-CLK1 (129-end, Signalchem) enzyme; GST; purchased Signalchem
In short: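 ADP formation was read by ADP-Glo luminescence after 1 h at 25° C with 3 ng human GST-CLK1 (129-end), substrate and 10 uM ATP in Tris pH 7.4 buffer containing MgCl2, BSA and DTT. Inhibition relative to untreated solvent control gave IC50 (nM), run in triplicate.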

LRRK2 = LRRK2 (Homo sapiens, UniProt Q5S007); assay: LRRK2 enzyme inhibition, ADP-Glo kinase assay; set-up: purchased Invitrogen PR8604B
Procedure: In order to evaluate the inhibitory activity of the compounds according to the present invention on LRRK2, LRRK2 (G2019S), DYRK1, CLK1 and TTK kinases, the following experiment was performed.
Example compounds were reacted with the purified human LRRK2 (Invitrogen #PR8604B) enzyme to evaluate the enzyme inhibitory ability as follows. The reaction buffer was used as the composition of 40 mM Tris-HCl pH7.4, 20 mM MgCl2, 0.5 mg/ml BSA and 50 μM DTT, and the reaction of all test materials was performed on the reaction buffer. The compound was diluted with 10 mM DMSO stock in 12 steps by a serial dilution method, and the enzyme activity was measured at the final compound concentrations of 50, 10, 2, 0.4, 0.08, 0.016, 0.0032, 0.00064, 0.000128, 0.0000256, 0.00000512 and 0.000001024 μM. In the test, the human LRRK2 (25 ng) enzyme was reacted with the purified ATP (10 μM) and an enzyme substrate ([…]) at 25° C. for 2 hours, and then the enzyme activity was identified using the in vitro ADP-Glo™ kinase assay (promega). The enzyme activity reaction liquid, an ADP-Glo reaction liquid and an enzyme potency detection solution were reacted in a ratio of 2:2:1, and the degree of inhibition of enzyme activity was measured by Luminescence. The degree of inhibition of enzyme activity according to the treatment concentrations of the respective compounds was calculated based on the fluorescence of the enzyme activity of a solvent control group that was not treated with the compound, where the concentration of each compound to inhibit enzyme activity inhibition by 50% was determined as an IC50 (nM) value and obtained using Prism (Version 5.01, GraphPad) software.
In the table below, the following designations were used for the evaluation of enzyme inhibitory ability.

Sequence of LRRK2 (G2019S) (Q5S007 970-2527 G2019S limits assumed): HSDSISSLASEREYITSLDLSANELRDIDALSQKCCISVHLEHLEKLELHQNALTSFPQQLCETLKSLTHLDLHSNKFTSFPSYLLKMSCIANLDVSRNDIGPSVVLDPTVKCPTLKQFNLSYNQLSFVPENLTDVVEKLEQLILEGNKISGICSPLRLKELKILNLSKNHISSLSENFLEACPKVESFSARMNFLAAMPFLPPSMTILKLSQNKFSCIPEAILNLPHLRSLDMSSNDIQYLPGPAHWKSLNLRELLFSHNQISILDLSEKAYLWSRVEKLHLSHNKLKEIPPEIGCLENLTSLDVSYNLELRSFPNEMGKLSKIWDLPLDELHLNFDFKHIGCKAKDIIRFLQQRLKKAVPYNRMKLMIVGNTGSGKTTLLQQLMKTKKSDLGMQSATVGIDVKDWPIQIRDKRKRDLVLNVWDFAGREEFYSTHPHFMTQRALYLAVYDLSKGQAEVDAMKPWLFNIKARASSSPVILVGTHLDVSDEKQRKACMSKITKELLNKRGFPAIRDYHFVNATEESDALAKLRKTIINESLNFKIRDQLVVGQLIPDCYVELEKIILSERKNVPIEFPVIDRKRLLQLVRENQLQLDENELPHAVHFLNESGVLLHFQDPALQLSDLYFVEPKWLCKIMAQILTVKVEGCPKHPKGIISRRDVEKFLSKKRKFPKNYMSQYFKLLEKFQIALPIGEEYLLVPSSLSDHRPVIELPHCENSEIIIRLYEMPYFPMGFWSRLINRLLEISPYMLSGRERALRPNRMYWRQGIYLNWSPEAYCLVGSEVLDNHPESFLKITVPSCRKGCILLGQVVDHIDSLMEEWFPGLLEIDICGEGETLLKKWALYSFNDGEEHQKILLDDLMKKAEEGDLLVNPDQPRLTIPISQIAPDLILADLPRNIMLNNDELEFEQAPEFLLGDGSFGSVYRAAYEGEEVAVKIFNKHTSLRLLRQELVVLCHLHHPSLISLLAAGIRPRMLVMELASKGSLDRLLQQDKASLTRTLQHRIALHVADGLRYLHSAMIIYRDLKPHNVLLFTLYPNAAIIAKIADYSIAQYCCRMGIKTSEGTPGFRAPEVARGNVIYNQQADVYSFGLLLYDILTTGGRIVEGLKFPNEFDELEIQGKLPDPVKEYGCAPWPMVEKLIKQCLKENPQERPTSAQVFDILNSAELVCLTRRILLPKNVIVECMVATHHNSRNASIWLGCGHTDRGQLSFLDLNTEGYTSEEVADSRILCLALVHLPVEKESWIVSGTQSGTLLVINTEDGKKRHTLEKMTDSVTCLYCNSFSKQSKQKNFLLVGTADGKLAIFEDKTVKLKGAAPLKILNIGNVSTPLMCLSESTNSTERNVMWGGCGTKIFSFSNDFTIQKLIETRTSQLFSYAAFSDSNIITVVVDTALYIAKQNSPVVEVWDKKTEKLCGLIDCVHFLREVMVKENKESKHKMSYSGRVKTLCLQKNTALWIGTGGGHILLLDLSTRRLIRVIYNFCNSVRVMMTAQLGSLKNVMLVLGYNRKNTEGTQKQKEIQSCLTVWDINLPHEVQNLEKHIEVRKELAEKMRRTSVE
T2 sequence (P49759 129-484 limits assumed): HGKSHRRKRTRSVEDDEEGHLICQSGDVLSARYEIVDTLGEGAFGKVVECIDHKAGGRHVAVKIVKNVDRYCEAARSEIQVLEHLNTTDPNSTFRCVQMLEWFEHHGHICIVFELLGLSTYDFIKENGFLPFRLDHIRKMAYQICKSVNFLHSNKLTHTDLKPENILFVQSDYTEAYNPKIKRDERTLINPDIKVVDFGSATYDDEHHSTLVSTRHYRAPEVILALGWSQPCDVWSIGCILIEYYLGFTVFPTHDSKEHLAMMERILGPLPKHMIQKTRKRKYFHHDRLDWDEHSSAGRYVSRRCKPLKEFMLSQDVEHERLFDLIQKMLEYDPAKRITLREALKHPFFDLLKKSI
Sequence of LRRK2 (Q5S007 970-2527 limits assumed): as the sequence (Q5S007 970-2527 G2019S limits assumed) above, with S1050G counted along it

IC50 [1] [nM] | IC50 (LRRK2 (G2019S)) [nM] | IC50 (human GST-CLK1 (129-end)) [nM] | IC50 (LRRK2) [nM] | Structure (SMILES)
301 to 1000 | 101 to 300 | 301 to 1000 | < 100 | COc1cc(S(C)(=O)=O)ccc1Nc1cc(NC2CCC2)c2c(C#N)c[nH]c2n1 [Example 120, 4-(cyclobutylamino)-6-((2-methoxy-4-(methylsulfonyl)phenyl)amino)-1H-pyrrolo[2,3-b]pyridine-3-carbonitrile]
301 to 1000 | 301 to 1000 | 301 to 1000 | 301 to 1000 | O=C(c1ccc(Nc2cc(NC3CCCCC3)c3c(C(F)(F)F)c[nH]c3n2)c2c1OCCO2)N1CCOCC1 [Example 154, (8-((4-(cyclohexylamino)-3-(trifluoromethyl)-1H-pyrrolo[2,3-b]pyridin-6-yl)amino)-2,3-dihydrobenzo[b] [1,4]dioxin-5-yl)(morpholino) methanone]
301 to 1000 | 101 to 300 | 301 to 1000 | < 100 | CCCNc1cc(Nc2ccc(S(C)(=O)=O)cc2OC)nc2[nH]cc(C#N)c12 [Example 125, 6-((2-methoxy-4-(methylsulfonyl)phenyl)amino)-4-(propylamino)-1H-pyrrolo[2,3-b]pyridine-3-carbonitrile]
301 to 1000 | 301 to 1000 | 301 to 1000 | 301 to 1000 | COc1cc(S(C)(=O)=O)ccc1Nc1cc(NC2CCCCC2)c2c(C(F)(F)F)c[nH]c2n1 [Example 182, N^4-cyclohexyl-N^6-(2-methoxy-4-(methylsulfonyl)phenyl)-3-(trifluoromethyl)-1H-pyrrolo[2,3-b]pyridine-4,6-diamine]
301 to 1000 | 301 to 1000 | 301 to 1000 | 301 to 1000 | COc1cc(S(=O)(=O)N2CCC(N3CCOCC3)CC2)ccc1Nc1cc(NC2CCCCC2)c2c(C(F)(F)F)c[nH]c2n1 [Example 183, N^4-cyclohexyl-N^6-(2-methoxy-4-((4-morpholinopiperidin-1-yl)sulfonyl)phenyl)-3-(trifluoromethyl)-1H-pyrrolo[2,3-b]pyridine-4,6-diamine]
< 100 | 101 to 300 | < 100 | < 100 | CCNc1cc(Nc2ccc(C(=O)N3CCOCC3)c3c2OCO3)nc2[nH]cc(C(F)(F)F)c12 [Example 236, (7-((4-(ethylamino)-3-(trifluoromethyl)-1H-pyrrolo[2,3-b]pyridin-6-yl)amino)benzo[d][1,3]dioxol-4-yl)(morpholino) methanone]
301 to 1000 | < 100 | 301 to 1000 | < 100 | COCCNc1cc(Nc2ccc(S(C)(=O)=O)cc2OC)nc2[nH]cc(C#N)c12 [Example 126, 6-((2-methoxy-4-(methylsulfonyl)phenyl)amino)-4-((2-methoxyethyl)amino)-1H-pyrrolo[2,3-b]pyridine-3-carbonitrile]
< 100 | < 100 | < 100 | < 100 | COCCNc1cc(Nc2ccc(C(=O)N3CCOCC3)c3c2OCCO3)nc2[nH]cc(C(F)(F)F)c12 [Example 158, (8-((4-((2-methoxyethyl)amino)-3-(trifluoromethyl)-1H-pyrrolo[2,3-b]pyridin-6-yl)amino)-2,3-dihydrobenzo[b] [1,4]dioxin-5-yl)(morpholino) methanone]
301 to 1000 | 301 to 1000 | 301 to 1000 | 301 to 1000 | CCNc1cc(Nc2ccc(S(C)(=O)=O)cc2OC)nc2[nH]cc(C(F)(F)F)c12 [Example 180, N^4-ethyl-N^6-(2-methoxy-4-(methylsulfonyl)phenyl)-3-(trifluoromethyl)-1H-pyrrolo[2,3-b]pyridine-4,6-diamine]
301 to 1000 | 301 to 1000 | 301 to 1000 | 301 to 1000 | COc1cc(S(C)(=O)=O)ccc1Nc1cc(NCC(C)C)c2c(C(F)(F)F)c[nH]c2n1 [Example 190, N^4-isobutyl-N^6-(2-methoxy-4-(methylsulfonyl)phenyl)-3-(trifluoromethyl)-1H-pyrrolo[2,3-b]pyridine-4,6-diamine]
301 to 1000 | < 100 | < 100 | < 100 | N#Cc1c[nH]c2nc(Nc3ccc(C(=O)N4CCC(N5CCOCC5)CC4)c4c3OCCO4)cc(NC3CCC3)c12 [Example 117, 4-(cyclobutylamino)-6-((8-(4-morpholinopiperidine-1-carbonyl)-2,3-dihydrobenzo[b] [1,4]dioxin-5-yl)amino)-1H-pyrrolo[2,3-b]pyridine-3-carbonitrile]

Second part, the compound before the results:

Structure (SMILES) | IC50 [1] [nM] | IC50 (LRRK2 (G2019S)) [nM] | IC50 (human GST-CLK1 (129-end)) [nM] | IC50 (LRRK2) [nM]
CNc1cc(Nc2ccc(C(=O)N3CCC(N4CCOCC4)CC3)c3c2OCCO3)nc2[nH]cc(C#N)c12 [Example 115, 4-(methylamino)-6-((8-(4-morpholinopiperidine-1-carbonyl)-2,3-dihydrobenzo[b] [1,4]dioxin-5-yl)amino)-1H-pyrrolo[2,3-b]pyridine-3-carbonitrile] | 101 to 300 | < 100 | 101 to 300 | < 100
COc1cc(S(C)(=O)=O)ccc1Nc1cc(NC2CCC2)c2c(Cl)c[nH]c2n1 [Example 85, 3-chloro-N^4-cyclobutyl-N^6-(2-methoxy-4-(methylsulfonyl)phenyl)-1H-pyrrolo[2,3-b]pyridine-4,6-diamine] | 101 to 300 | 301 to 1000 | 301 to 1000 | 301 to 1000
CCCNc1cc(Nc2ccc(C(=O)N3CCOCC3)c3c2OCCO3)nc2[nH]cc(C#N)c12 [Example 108, 6-((8-(morpholine-4-carbonyl)-2,3-dihydrobenzo[b] [1,4]dioxin-5-yl)amino)-4-(propylamino)-1H-pyrrolo[2,3-b]pyridine-3-carbonitrile] | 301 to 1000 | < 100 | 301 to 1000 | < 100
N#Cc1c[nH]c2nc(Nc3ccc(C(=O)N4CCC(N5CCOCC5)CC4)c4c3OCCO4)cc(NC3CC3)c12 [Example 116, 4-(cyclopropylamino)-6-((8-(4-morpholinopiperidine-1-carbonyl)-2,3-dihydrobenzo [b] [1,4]dioxin-5-yl)amino)-1H-pyrrolo[2,3-b]pyridine-3-carbonitrile] | 301 to 1000 | < 100 | 101 to 300 | < 100
O=C(c1ccc(Nc2cc(NC3CC3)c3c(C(F)(F)F)c[nH]c3n2)c2c1CCO2)N1CCOCC1 [Example 53, (7-((4-(cyclopropylamino)-3-(trifluoromethyl)-1H-pyrrolo[2,3-b]pyridin-6-yl)amino)-2,3-dihydrobenzofuran-4-yl)(morpholino) methanone] | < 100 | < 100 | < 100 | < 100
COc1cc(S(C)(=O)=O)ccc1Nc1cc(NCC(C)C)c2cc[nH]c2n1 [Example 29, N^4-isobutyl-N^6-(2-methoxy-4-(methylsulfonyl)phenyl)-1H-pyrrolo[2,3-b]pyridine-4,6-diamine] | 301 to 1000 | 101 to 300 | 301 to 1000 | < 100
CCCNc1cc(Nc2ccc(S(C)(=O)=O)cc2OC)nc2[nH]ccc12 [Example 27, N^6-(2-methoxy-4-(methylsulfonyl)phenyl)-N^4-propyl-1H-pyrrolo[2,3-b]pyridine-4,6-diamine] | 301 to 1000 | < 100 | 301 to 1000 | < 100
COc1cc(S(C)(=O)=O)ccc1Nc1cc(NC(C)C)c2cc[nH]c2n1 [Example 28, N^4-isopropyl-N^6-(2-methoxy-4-(methylsulfonyl)phenyl)-1H-pyrrolo[2,3-b]pyridine-4,6-diamine] | 301 to 1000 | 301 to 1000 | 301 to 1000 | 101 to 300
CNc1cc(Nc2ccc(C(=O)N3CCOCC3)c3c2OCC3)nc2[nH]cc(C(F)(F)F)c12 [Example 52, (7-((4-(methylamino)-3-(trifluoromethyl)-1H-pyrrolo[2,3-b]pyridin-6-yl)amino)-2,3-dihydrobenzofuran-4-yl)(morpholino) methanone] | < 100 | < 100 | < 100 | < 100
